Results on 63 compounds are retold here after ChEMBL document CHEMBL4706628, “Ligand-based optimization to identify novel 2-aminobenzo[d]thiazole derivatives as potent sEH inhibitors with anti-inflammatory effects” (Eur J Med Chem, 2021).

Each structure is given as a SMILES string.

The target of series [1] is T1, Bifunctional epoxide hydrolase 2 (Homo sapiens) (UniProt P34913).
T1 sequence (whole entry): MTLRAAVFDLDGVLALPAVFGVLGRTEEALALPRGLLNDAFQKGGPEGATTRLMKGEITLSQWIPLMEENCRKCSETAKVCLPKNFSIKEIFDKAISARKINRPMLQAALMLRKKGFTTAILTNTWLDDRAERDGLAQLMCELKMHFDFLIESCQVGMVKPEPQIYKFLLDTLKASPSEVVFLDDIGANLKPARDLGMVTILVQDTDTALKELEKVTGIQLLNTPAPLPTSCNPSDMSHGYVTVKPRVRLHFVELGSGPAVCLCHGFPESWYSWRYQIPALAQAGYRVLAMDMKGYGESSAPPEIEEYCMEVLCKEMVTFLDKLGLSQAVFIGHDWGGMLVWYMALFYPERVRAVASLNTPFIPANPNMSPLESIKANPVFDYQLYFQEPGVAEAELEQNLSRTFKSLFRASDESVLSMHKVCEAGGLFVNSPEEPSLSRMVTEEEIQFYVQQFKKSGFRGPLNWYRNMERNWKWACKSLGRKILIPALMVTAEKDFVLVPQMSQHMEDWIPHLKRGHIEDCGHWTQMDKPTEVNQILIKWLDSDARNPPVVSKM
Nature of the series: Inhibition of recombinant human sEH at 100 nM using PHOME as substrate measured after 15 mins by fluorescence assay relative to control.

The target of series [2] is T2, Bifunctional epoxide hydrolase 2 (Homo sapiens, UniProt P34913).
T2 sequence (P34913 whole entry): T1 sequence (whole entry)
Kind of series: Inhibition of recombinant human sEH using PHOME as substrate measured after 15 mins by fluorescence assay.

A short description of series [3]: in vitro. To be noted: Sprague-Dawley, rat, liver microsomes.
A short description of series [4]: in vitro. Conditions: Sprague-Dawley, rat, liver microsomes. This is another data set of the same source. A general note: Liver microsomes are vesicles of endoplasmic reticulum, rich in cytochrome P450 enzymes.
Description: Stability in Sprague-Dawley rat liver microsomes assessed as parent compound remaining at 10 uM measured after 60 mins in absence of NADPH regenerating system by HPLC analysis
The nature of series [5]: in vitro. Conditions: Sprague-Dawley, rat, liver microsomes. The source holds these as a separate data set.
Description: Half life in Sprague-Dawley rat liver microsomes at 10 uM measured up to 60 mins in presence of NADPH regenerating system by HPLC analysis
Series [6] is described as follows: in vitro. To be noted: Sprague-Dawley, rat, liver microsomes. The source holds these as a separate data set.
Description: Stability in Sprague-Dawley rat liver microsomes assessed as parent compound remaining at 10 uM measured after 60 mins in presence of NADPH regenerating system by HPLC analysis
Series [7] can be described thus: in vitro. Conditions: Sprague-Dawley, rat, liver microsomes. This is another data set of the same source.

`CCc1ccc(NC(=O)N(CCN2CCOCC2)c2ccc3nc(N)sc3c2)cc1`: the inhibition in series [1] amounted to 84.7%. In addition, the IC50 in series [2] was 1.9 nM. Consider `O=C(Cc1ccccc1F)Nc1nc2ccc(N(CCN3CCOCC3)C(=O)Nc3ccc(F)c(Br)c3)cc2s1`, for which, in series [1], the inhibition is 73.8%. The same measure, in the same setting: as for `Nc1nc2ccc(N(CCN3CCOCC3)C(=O)Nc3cccc(Cl)c3)cc2s1`, the figure is 36.5%.

As to `CC(C)Oc1ccc(NC(=O)N(CCN2CCOCC2)c2ccc3nc(N)sc3c2)cc1`, the inhibition in series [1] is 56.6%. In addition, the IC50 in series [2] is 122 nM. As to `O=C(Cc1ccc(Cl)cc1)Nc1nc2ccc(N(CCN3CCOCC3)C(=O)Nc3ccc(Cl)cc3)cc2s1`, the inhibition in series [1] is 71.9%. Still for that read-out and setting: then `CC(=O)c1ccc(NC(=O)N(CCN2CCOCC2)c2ccc3nc(N)sc3c2)cc1`, with 28.2%; and `O=C(Cc1ccc(Cl)cc1Cl)Nc1nc2ccc(N(CCN3CCOCC3)C(=O)Nc3ccc(Cl)cc3)cc2s1`, with 71.8%. On the same count and under the same terms, as for `Nc1ccc2nc(NC(=O)Nc3ccc(Cl)cc3)sc2c1`, the figure is 6.7%; as for `Nc1nc2ccc(N(CCN3CCOCC3)C(=O)Nc3ccc(C(F)(F)F)cc3)cc2s1`, 62%. The same measure, in the same setting: as for `Cc1ccccc1NC(=O)N(CCN1CCOCC1)c1ccc2nc(N)sc2c1`, the figure is 26.3%. As to `CC(=O)Nc1ccc(NC(=O)N(CCN2CCOCC2)c2ccc3nc(N)sc3c2)cc1`, the inhibition in series [1] stood at 59.4%. Turning to `O=C(Cc1ccc(F)cc1)Nc1nc2ccc(N(CCN3CCOCC3)C(=O)Nc3ccc(Cl)cc3)cc2s1`, the inhibition in series [1] was found to be 74.9%.

Take `Nc1nc2ccc(N(CCN3CCOCC3)C(=O)Nc3ccc(Cl)cc3Cl)cc2s1`: the inhibition in series [1] was found to be 58.4%. Regarding `O=C(Nc1nc2ccc(N(CCN3CCOCC3)C(=O)Nc3ccc(Cl)cc3)cc2s1)c1ccc(F)cc1`, the inhibition in series [1] worked out at 64%. Still for that read-out and setting: then `Nc1nc2ccc(N(CCN3CCOCC3)C(=O)Nc3ccc([N+](=O)[O-])cc3)cc2s1`, with 19.2%; and `O=C(NCc1ccc(Cl)cc1)Nc1nc2ccc([N+](=O)[O-])cc2s1`, with 10.9%; and `Nc1nc2ccc(NC(=O)Nc3ccc(OC(F)(F)F)cc3)cc2s1`, with 60.2%. Same read-out and setting: then `O=C(Nc1nc2ccc(N(CCN3CCOCC3)C(=O)Nc3ccc(Cl)cc3)cc2s1)c1ccccc1`, with 48.8%.

Regarding `Nc1nc2ccc(N(CCN3CCOCC3)C(=O)Nc3cccc4ccccc34)cc2s1`, in series [1], the inhibition came to 39%. The IC50 in series [2] turned out to be 151 nM. The corresponding values for `Cc1ccc(NC(=O)N(CCN2CCOCC2)c2ccc3nc(N)sc3c2)cc1` are 73.1% and 8.3 nM. Turning to `Nc1nc2ccc(NC(=O)Nc3ccccn3)cc2s1`, the inhibition in series [1] worked out at 20.5%.

`CN(C)CCN(C(=O)Nc1ccc(Cl)cc1)c1ccc2nc(N)sc2c1`: in series [1], the inhibition worked out at 39.1%. Same read-out and setting: as for `CCc1ccc(NC(=O)N(CCN2CCOCC2)c2ccc3nc(NC(=O)Cc4ccccc4)sc3c2)cc1`, the figure is 76.8%; as for `COc1ccc(CC(=O)Nc2nc3ccc(N(CCN4CCOCC4)C(=O)Nc4ccc(Cl)cc4)cc3s2)cc1`, 65.8%.

As for `CCc1ccc(NC(=O)N(CCN2CCOCC2)c2ccc3nc(NC(=O)Cc4ccccc4F)sc3c2)cc1`, the inhibition in series [1] was 85.2%. Further, in series [2], the IC50 came to 5.4 nM.

Consider `Nc1nc2ccc(N(CCN3CCCCC3)C(=O)Nc3ccc(Cl)cc3)cc2s1`, for which, in series [1], the inhibition was 84.6%. The IC50 in series [2] came to 6.5 nM.

`CCN(CC)CCN(C(=O)Nc1ccc(Cl)cc1)c1ccc2nc(N)sc2c1`: the inhibition in series [1] amounted to 86.3%. Further, the IC50 in series [2] came out at 24.5 nM. For `Cc1cccc(NC(=O)N(CCN2CCOCC2)c2ccc3nc(N)sc3c2)c1`, in that order: 61.7% and 101 nM. For `Nc1nc2ccc(N(CCN3CCOCC3)C(=O)Nc3ccc(Br)cc3)cc2s1`, in that order: 83.8% and 16.2 nM.

In the case of `O=C(Cc1ccc(Br)cc1)Nc1nc2ccc(N(CCN3CCOCC3)C(=O)Nc3ccc(Cl)cc3)cc2s1`, in series [1], the inhibition turned out to be 70.6%.

For `Nc1nc2ccc(N(CCN3CCOCC3)C(=O)Nc3ccccc3)cc2s1`, the inhibition in series [1] was 40.4%. Same read-out and setting: as for `CC(=O)Nc1nc2ccc(N(CCN3CCOCC3)C(=O)Nc3ccc(Cl)cc3)cc2s1`, the figure is 68.1%; as for `Nc1nc2ccc(N(CCCN3CCOCC3)C(=O)Nc3ccc(Cl)cc3)cc2s1`, 9.44%. On to `Nc1nc2ccc(NC(=O)NC3CCCCC3)cc2s1`, for which the inhibition in series [1] was 59.9%. In series [2], the IC50 amounted to 4.1 nM.

`O=C(Nc1ccc(Cl)cc1)Nc1nc2ccc(NCCN3CCOCC3)cc2s1`: in series [1], the inhibition was 16.2%. On the same count and under the same terms, then `Nc1nc2ccc(NC(=O)Nc3cccc4ccccc34)cc2s1`, with 34.1%. On to `CC1CCN(CCN(C(=O)Nc2ccc(Cl)cc2)c2ccc3nc(N)sc3c2)CC1`, for which, in series [1], the inhibition came out at 77.5%. Also, the IC50 in series [2] stood at 20.2 nM. `CC(=O)Nc1ccc2nc(NC(=O)Nc3ccc(Cl)cc3)sc2c1`: the inhibition in series [1] was 12.5%. On the same count and under the same terms, as for `Nc1nc2ccc(N(CCN3CCOCC3)C(=O)Nc3ccccn3)cc2s1`, the figure is 16.2%. With `Nc1nc2ccc(NC(=O)Nc3ccc(Cl)cc3)cc2s1`, the inhibition in series [1] came out at 76.1%. Also, in series [2], the IC50 was determined as 10.1 nM. For `Nc1nc2ccc(NC(=O)Nc3ccccc3)cc2s1`, in series [1], the inhibition worked out at 40.1%. As to `Nc1nc2ccc(N(CCN3CCOCC3)C(=O)Nc3cccc(C(F)(F)F)c3)cc2s1`, the inhibition in series [1] stood at 6.18%.

For `NC(=O)Nc1ccc2nc(N)sc2c1`, the inhibition in series [1] worked out at 25.3%. For `O=C(Cc1ccccc1F)Nc1nc2ccc(N(CCN3CCOCC3)C(=O)Nc3ccc(Cl)cc3)cc2s1`, the inhibition in series [1] came to 82.5%. Besides, the IC50 in series [2] worked out at 4.08 nM.

As for `CN1CCN(CCN(C(=O)Nc2ccc(Cl)cc2)c2ccc3nc(N)sc3c2)CC1`, the inhibition in series [1] came out at 45.9%. The same measure, in the same setting: then `CN1CCN(C(=O)Nc2nc3ccc(N(CCN4CCOCC4)C(=O)Nc4ccc(Cl)cc4)cc3s2)CC1`, with 64%.

Consider `O=C(Nc1ccc(Cl)cc1)Nc1nc2ccc([N+](=O)[O-])cc2s1`, for which the inhibition in series [1] came to 7.2%.

As to `Nc1nc2ccc(N(CCN3CCCC3)C(=O)Nc3ccc(Cl)cc3)cc2s1`, the inhibition in series [1] was determined as 48.3%. Take `Nc1nc2ccc(N(CCN3CCOCC3)C(=O)Nc3ccc(F)cc3)cc2s1`: the inhibition in series [1] is 74.3%. Same read-out and setting: then `Nc1nc2ccc(N(CCN3CCOCC3)C(=O)NCc3ccc(Cl)cc3)cc2s1`, with 14.5%.

Consider `Nc1nc2ccc(N(CCN3CCOCC3)C(=O)Nc3ccc(OC(F)(F)F)cc3)cc2s1`, for which the inhibition in series [1] was found to be 61.3%.

Turning to `O=C(CCc1ccccc1)Nc1nc2ccc(N(CCN3CCOCC3)C(=O)Nc3ccc(Cl)cc3)cc2s1`, the inhibition in series [1] is 77.7%. Turning to `O=C(O)Cc1ccccc1Nc1c(Cl)cccc1Cl` [DICLOFENAC], the microsomal CLint at 1 h, 10 µM came out at 107 µL/min/mg in the series “in vitro [3]” and 59.3 µL/min/mg in the series “in vitro [7]”. Moreover, the amount remaining at 1 h, 10 µM in the series “in vitro [4]” amounted to 96.3%; in the series “in vitro [6]”, 16.9%. For the same compound, the half-life at 1 h, 10 µM in “in vitro [5]” stood at 23.4 min. Take `COc1ccc(CC(=O)Nc2nc3ccc(N(CCN4CCOCC4)C(=O)Nc4ccc(Cl)cc4)cc3s2)cc1F`: the inhibition in series [1] amounted to 58.1%. Regarding `Nc1nc2ccc(NC(=O)NC34CC5CC(CC(C5)C3)C4)cc2s1`, the inhibition in series [1] worked out at 77.3%. For the same compound, the IC50 in series [2] stood at 822 nM. With `CC(=O)Nc1ccc2nc(NC(=O)NCc3ccc(Cl)cc3)sc2c1`, the inhibition in series [1] amounted to 14.5%. Regarding `COc1ccc(NC(=O)Nc2ccc3nc(N)sc3c2)cc1`, in series [1], the inhibition stood at 39.3%. Same read-out and setting: then `O=C(Cc1ccccc1)Nc1nc2ccc(N(CCN3CCOCC3)C(=O)Nc3ccc(F)c(Br)c3)cc2s1`, with 74.2%. On to `CC(C)c1ccc(NC(=O)N(CCN2CCOCC2)c2ccc3nc(N)sc3c2)cc1`, for which, in series [1], the inhibition stood at 75.2%. The IC50 in series [2] amounted to 11.2 nM. Regarding `Nc1ccc2nc(NC(=O)NCc3ccc(Cl)cc3)sc2c1`, the inhibition in series [1] is 14.2%. On the same count and under the same terms, as for `Nc1nc2ccc(NC(=O)NCc3ccc(Cl)cc3)cc2s1`, the figure is 47%. Take `Nc1nc2ccc(N(CCN3CCOCC3)C(=O)Nc3ccccc3Cl)cc2s1`: the inhibition in series [1] was 59.7%.

As to `O=C(Nc1nc2ccc(N(CCN3CCOCC3)C(=O)Nc3ccc(Cl)cc3)cc2s1)C1CC1`, the inhibition in series [1] was determined as 32.5%.

The term inhibition denotes how much of the control response was suppressed. Usually IC50 stands for the concentration needed to halve the response being measured. By microsomal CLint is commonly meant the capacity of the preparation to metabolise the compound, expressed as a volume cleared per time. A higher microsomal CLint goes with rapid turnover. What is called share remaining is the share of the starting amount still present when the sample was taken. The term half-life denotes the time in which the quantity being followed falls by half.
